In patent US20110200557A1, “NEW 2-AMIDOTHIADIAZOLE DERIVATIVES” (priority 2008, published 2011):

Target: S1P1 receptors (Homo sapiens, UniProt P21453)
Experiment: 35S-GTPyS binding assay
Type: biochemical
Details: membranes; compound 0.1 nM-10 μM; 0.1 nM 35S-GTPyS; 10 μM S1P as 100% maximum efficacy; 90 min at room temperature
Protocol: The effect of the compounds was measured using a 35S-GTPyS binding assay. Briefly, membranes were incubated in a buffer containing 20 mM HEPES pH 7.4, 100 mM NaCl, 10 mM MgCl2, 10 μM GDP, 50 μg/ml saponin and 0.2% fatty acid-free BSA at various concentrations (0.1 nM-10 μM) and 0.1 nM 35S-GTPyS. 10 μM S1P was used as 100% maximum efficacy. The assay was incubated for 90 min at room temperature with gentle mixing, and terminated by filtrating the reaction mixture through GF/C filter plates using the Manifold Filtration System. The filters were immediately washed with sodium phosphate pH 7.4 buffers. After drying the filter plate's scintillant liquid were added to each well and 35S-GTPyS binding was measured on a Trilux Scintillation Counter.

Sequence of S1P1 receptors (P21453 whole entry): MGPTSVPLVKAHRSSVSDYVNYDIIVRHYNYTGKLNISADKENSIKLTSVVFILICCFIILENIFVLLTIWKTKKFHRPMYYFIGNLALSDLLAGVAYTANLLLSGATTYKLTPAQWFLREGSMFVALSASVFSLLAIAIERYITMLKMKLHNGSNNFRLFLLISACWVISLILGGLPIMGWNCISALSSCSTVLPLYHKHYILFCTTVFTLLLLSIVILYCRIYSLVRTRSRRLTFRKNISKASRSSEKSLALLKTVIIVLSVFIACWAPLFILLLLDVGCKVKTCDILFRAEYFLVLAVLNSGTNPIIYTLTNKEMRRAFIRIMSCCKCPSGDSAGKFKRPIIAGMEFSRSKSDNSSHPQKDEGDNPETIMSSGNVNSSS

Compound | EC50 [nM]
COc1c(C)cc(-c2nnc(N(CC3CC3)C(=O)c3ccccc3F)s2)cc1C [Example 46, N-(cyclopropylmethyl)-2-fluoro-N-[5-(4-methoxy-3,5-dimethylphenyl)-1,3,4-thiadiazol-2-yl]benzamide] | 36
CCCCN(C(=O)c1ccccc1F)c1nnc(-c2cc(C)c(OC)c(C)c2)s1 [Example 9, N-butyl-2-fluoro-N-[5-(4-methoxy-3,5-dimethylphenyl)-1,3,4-thiadiazol-2-yl]benzamide] | 4.4
CCCCN(C(=O)c1ccccc1F)c1nnc(-c2ccc(C(=O)NCCC(=O)O)cc2)s1 [Example 69, N-(4-{5-[Butyl(2-fluorobenzoyl)amino]-1,3,4-thiadiazol-2-yl}benzoyl)-beta-alanine] | 55
CCCCN(C(=O)c1ccccc1Cl)c1nnc(-c2cc(C)nc(Cl)c2)s1 [Example 39, N-Butyl-2-chloro-N-[5-(2-chloro-6-methylpyridin-4-yl)-1,3,4-thiadiazol-2-yl]benzamide] | 3.8
CCCCN(C(=O)c1ccccc1F)c1nnc(-c2ccc(OC)nc2)s1 [Example 48, N-butyl-2-fluoro-N-(5-(6-methoxypyridin-3-yl)-1,3,4-thiadiazol-2-yl)benzamide] | 116
CCCCN(C(=O)c1ccccc1Cl)c1nnc(-c2cc(C)c(O)c(C)c2)s1 [Example 8, N-butyl-2-chloro-N-[5-(4-hydroxy-3,5-dimethylphenyl)-1,3,4-thiadiazol-2-yl]benzamide] | 6.2
CCCCN(C(=O)c1ccccc1OC)c1nnc(-c2cc(C)c(OC)c(C)c2)s1 [Example 19, N-butyl-2-methoxy-N-[5-(4-methoxy-3,5-dimethylphenyl)-1,3,4-thiadiazol-2-yl]benzamide] | 8.3
CCCCN(C(=O)c1ccccc1Cl)c1nnc(-c2cc(C)c(OCCOC)c(C)c2)s1 [Example 32, N-butyl-2-chloro-N-{5-[4-(2-methoxyethoxy)-3,5-dimethylphenyl]-1,3,4-thiadiazol-2-yl}benzamide] | 64.2
CCCCN(C(=O)c1ccccc1F)c1nnc(-c2ccc3nccn3c2)s1 [Example 49, N-butyl-2-fluoro-N-(5-(imidazo[1,2-a]pyridin-6-yl)-1,3,4-thiadiazol-2-yl)benzamide] | 88.7
CCCCN(C(=O)c1ccccc1Cl)c1nnc(-c2cc(Cl)nc(OC)c2)s1 [Example 31, N-Butyl-2-chloro-N-[5-(2-chloro-6-methoxypyridin-4-yl)-1,3,4-thiadiazol-2-yl]benzamide] | 3.4
CCCCN(C(=O)c1ccccc1Cl)c1nnc(-c2ccc(C(N)=O)cc2)s1 [Example 53, N-butyl-N-(5-(4-carbamoylphenyl)-1,3,4-thiadiazol-2-yl)-2-chlorobenzamide] | 46.3

Now from value to compound:

EC50 [nM] | Compound
1.52 | CCCCN(C(=O)c1ccccc1F)c1nnc(-c2cc(C)c(OCC(O)CN)c(C)c2)s1 (stereo not drawn) [Example 113, N-{5-[4-(3-Amino-2-hydroxypropoxy)-3,5-dimethylphenyl]-1,3,4-thiadiazol-2-yl}-N-butyl-2-fluorobenzamide]
7 | CCN(C(=O)c1cccc(Cl)c1F)c1nnc(-c2ccc(CN3CC(C(=O)O)C3)cc2)s1 [Example 108, 1-(4-{5-[(3-Chloro-2-fluorobenzoyl)(ethyl)amino]-1,3,4-thiadiazol-2-yl}benzyl)-azetidine-3-carboxylic acid]
1.4 | CCCCN(C(=O)Cc1ccccc1F)c1nnc(-c2ccc(CN3CC(C(=O)O)C3)cc2)s1 [Example 87, 1-[4-(5-{Butyl[(2-fluorophenyl)acetyl]amino}-1,3,4-thiadiazol-2-yl)benzyl]azetidine-3-carboxylic acid]
4.42 | CCCCN(C(=O)c1ccccc1Cl)c1nnc(-c2ccc(CN3CCC(C(=O)O)CC3)cc2C)s1 [Example 118, 1-(4-{5-[Butyl(2-chlorobenzoyl)amino]-1,3,4-thiadiazol-2-yl}-3-methylbenzyl)-piperidine-4-carboxylic acid]
2 | CCCCN(C(=O)c1ccccc1F)c1nnc(-c2ccc(CN3CCC(C(=O)O)C3)cc2C)s1 (stereo not drawn) [Example 97, 1-(4-{5-[Butyl(2-fluorobenzoyl)amino]-1,3,4-thiadiazol-2-yl}-3-methylbenzyl)-pyrrolidine-3-carboxylic acid]
0.45 | CCCCN(C(=O)c1ccccc1F)c1nnc(-c2cc(C)c(OCCN)c(C)c2)s1 [Example 105, N-{5-[4-(2-Aminoethoxy)-3,5-dimethylphenyl]-1,3,4-thiadiazol-2-yl}-N-butyl-2-fluorobenzamide]
0.15 | CCCCN(C(=O)c1cccc(Cl)c1F)c1nnc(-c2cc(C)c(OCC(O)CO)c(C)c2)s1 (stereo not drawn) [Example 111, N-Butyl-3-chloro-N-{5-[4-(2,3-dihydroxypropoxy)-3,5-dimethylphenyl]-1,3,4-thiadiazol-2-yl}-2-fluorobenzamide]
